test system: MOLM-13 cells; assay: MOLM-13 Cell Proliferation Assay (indicator of DHODH inhibition); type: cell-based; details: Homo sapiens, 72 Hours of culture, CellTiter-Glo, no uridine
Method: The following assay was conducted to measure proliferation of MOLM-13 cells in the presence of each compound studied. This assay was included as an indicator of DHODH inhibition, as growth of MOLM-13 cells is known to depend on synthesis of pyrimidines using the de novo pathway, which can be blocked by inhibition of DHODH. • 1. MOLM-13 cells were cultured in RPMI 1640 medium+10% Fetal Bovine Serum (FBS). Only low passage cells (<20) were used for the compound tests • 2. On day 1, Log-phase growing Molm-13 Cells were counted and diluted to 10^5 cells/mL in RPMI 1640 medium+10% FBS • 3. 100 μL of diluted MOLM-13 cells in 96 well white plates were seeded, for a final density of 10^4 cells/well. • 4. 0.5 μL of pre-diluted 200× compounds or DMSO control was added to each well. The final DMSO concentration was 0.5%. • 5. After 72 Hours of culture at 37° C., 5% CO2, the plates were taken out and cooled to RT, then 50 μL CellTiter-Glo® (Promega) was added, and the composition was mixed at RT for 10 minutes. • 6. The plates were then read by ViewLux (Speed-fast, Gain-High, Bining-1X, 5 seconds).

| IC50 | SMILES |
| --- | --- |
| 18.9 nM | Fc1cnc(N2CCc3c([nH]c4ccc(Cl)c(F)c34)C2c2ccc(Cl)cc2)nc1 (stereo not shown) [Compound 26, 6-chloro-1-(4-chlorophenyl)-5-fluoro-2-(5-fluoropyrimidin-2-yl)-2,3,4,9-tetrahydro-1H-pyrido[3,4-b]indole] |
| 0.6 nM | N#Cc1ccc(C2c3[nH]c4cc(F)c(Cl)cc4c3CCN2c2nc(C(F)(F)F)cc(C(F)(F)F)n2)cc1 (stereo not shown) [Compound 188, 4-{2-[4,6-bis(trifluoromethyl)pyrimidin-2-yl]-6-chloro-7-fluoro-2,3,4,9-tetrahydro-1H-pyrido[3,4-b]indol-1-yl}benzonitrile] |
| 1.2 nM | N#Cc1cc(C(F)(F)F)nc(N2CCc3c([nH]c4ccc(Cl)cc34)[C@@H]2c2cnc(N3CCOCC3)nc2)n1 [Compound 434, 2-{(1S)-6-chloro-1-[2-(morpholin-4-yl)pyrimidin-5-yl]-1,3,4,9-tetrahydro-2H-pyrido[3,4-b]indol-2-yl}-6-(trifluoromethyl)pyrimidine-4-carbonitrile] |
| 0.8 nM | Cc1ccc([C@H]2c3[nH]c4ccc(Cl)cc4c3CCN2c2nc(C)c(F)c(C#N)n2)c(F)c1F [Compound 413, 2-[(1S)-6-chloro-1-(2,3-difluoro-4-methylphenyl)-1,3,4,9-tetrahydro-2H-pyrido[3,4-b]indol-2-yl]-5-fluoro-6-methylpyrimidine-4-carbonitrile] |
| 6.1 nM | Fc1ccc(C2c3[nH]c4ccc(Cl)cc4c3CCN2c2nccc(C(F)(F)F)n2)c(F)c1 (stereo not shown) [Compound 423, 6-chloro-1-(2,4-difluorophenyl)-2-[4-(trifluoromethyl)pyrimidin-2-yl]-2,3,4,9-tetrahydro-1H-pyrido[3,4-b]indole] |
| 3.4 nM | CN(C)c1ncc(C2c3[nH]c4ccc(Cl)c(F)c4c3CCN2c2nccc(C(F)(F)F)n2)cn1 (stereo not shown) [Compound 178, 5-{6-chloro-5-fluoro-2-[4-(trifluoromethyl)pyrimidin-2-yl]-2,3,4,9-tetrahydro-1H-pyrido[3,4-b]indol-1-yl}-N,N-dimethylpyrimidin-2-amine] |
| 4.4 nM | Cc1ccc(C2c3[nH]c4ccc(Cl)c(F)c4c3CCN2c2nccc(Cl)n2)cc1 (stereo not shown) [Compound 28, 6-chloro-2-(4-chloropyrimidin-2-yl)-5-fluoro-1-(4-methylphenyl)-2,3,4,9-tetrahydro-1H-pyrido[3,4-b]indole] |
| 0.4 nM | Cc1ccc([C@H]2c3[nH]c4ccc(Cl)c(F)c4c3CCN2c2nc(C)c(F)c(C)n2)c(F)c1F [Compound 189, (1S)-6-chloro-1-(2,3-difluoro-4-methylphenyl)-5-fluoro-2-(5-fluoro-4,6-dimethylpyrimidin-2-yl)-2,3,4,9-tetrahydro-1H-pyrido[3,4-b]indole] |
| 25.7 nM | N#Cc1ccc(C2c3[nH]c4ccc(Cl)c(F)c4c3CCN2c2ncc(Cl)cn2)cc1 (stereo not shown) [Compound 52, 4-[6-chloro-2-(5-chloropyrimidin-2-yl)-5-fluoro-2,3,4,9-tetrahydro-1H-pyrido[3,4-b]indol-1-yl]benzonitrile] |
| 3.9 nM | N#Cc1ccnc(N2CCc3c([nH]c4cc(F)c(Cl)cc34)C2c2ccc(/C=C/CCO)cc2)n1 (stereo not shown) [Compound 224, 2-(6-chloro-7-fluoro-1-{4-[(1E)-4-hydroxybut-1-en-1-yl]phenyl}-1,3,4,9-tetrahydro-2H-pyrido[3,4-b]indol-2-yl)pyrimidine-4-carbonitrile] |
| 46.9 nM | OCc1ccc(C2c3[nH]c4cc(F)c(Cl)cc4c3CCN2c2ncc(F)cn2)cc1 (stereo not shown) [Compound 78, {4-[6-chloro-7-fluoro-2-(5-fluoropyrimidin-2-yl)-2,3,4,9-tetrahydro-1H-pyrido[3,4-b]indol-1-yl]phenyl}methanol] |
| 71 nM | Nc1ncc(C2c3[nH]c4ccc(Cl)c(F)c4c3CCN2c2ncc(F)cn2)cn1 (stereo not shown) [Compound 212, 5-[6-chloro-5-fluoro-2-(5-fluoropyrimidin-2-yl)-2,3,4,9-tetrahydro-1H-pyrido[3,4-b]indol-1-yl]pyrimidin-2-amine] |
| 0.7 nM | Fc1c(Cl)ccc(C2c3[nH]c4ccc(Cl)cc4c3CCN2c2nccc(C(F)(F)F)n2)c1F (stereo not shown) [Cpd 144, 6-chloro-1-(4-chloro-2,3-difluorophenyl)-2-[4-(trifluoromethyl)pyrimidin-2-yl]-2,3,4,9-tetrahydro-1H-pyrido[3,4-b]indole] |
| 222 nM | Oc1ccc(C2c3[nH]c4cc(F)c(Cl)cc4c3CCN2c2ncc(F)cn2)cn1 (stereo not shown) [Compound 48, 5-[6-chloro-7-fluoro-2-(5-fluoropyrimidin-2-yl)-2,3,4,9-tetrahydro-1H-pyrido[3,4-b]indol-1-yl]pyridin-2-ol] |
| 121 nM | N#Cc1ccc(C2c3[nH]c4c(F)cc(Cl)cc4c3CCN2c2ncc(F)cn2)cc1 (stereo not shown) [Compound 33, 4-[6-chloro-8-fluoro-2-(5-fluoropyrimidin-2-yl)-2,3,4,9-tetrahydro-1H-pyrido[3,4-b]indol-1-yl]benzonitrile] |

More lines, now with the values behind:

| SMILES | IC50 |
| --- | --- |
| N#Cc1cc(C#N)nc(N2CCc3c([nH]c4cc(F)c(Cl)cc34)C2c2cccc(F)c2F)n1 (stereo not shown) [Compound 227, 2-[6-chloro-1-(2,3-difluorophenyl)-7-fluoro-1,3,4,9-tetrahydro-2H-pyrido[3,4-b]indol-2-yl]pyrimidine-4,6-dicarbonitrile] | 16.4 nM |
| Cc1ccc([C@H]2c3[nH]c4ccc(Cl)cc4c3CCN2c2nc(CF)nc(C(F)(F)F)n2)c(F)c1F [Compound 526, (1S)-6-chloro-1-(2,3-difluoro-4-methylphenyl)-2-[4-(fluoromethyl)-6-(trifluoromethyl)-1,3,5-triazin-2-yl]-2,3,4,9-tetrahydro-1H-pyrido[3,4-b]indole] | 0.5 nM |
| Cc1ccc(C2c3[nH]c4ccc(Cl)cc4c3CCN2c2nccc(C(F)(F)F)n2)c(F)c1F (stereo not shown) [Compound 128, 6-chloro-1-(2,3-difluoro-4-methylphenyl)-2-[4-(trifluoromethyl)pyrimidin-2-yl]-2,3,4,9-tetrahydro-1H-pyrido[3,4-b]indole] | 0.9 nM |
| Clc1ccc2[nH]c3c(c2c1)CCN(c1nccc(-c2ccccc2)n1)C3c1cnc(N2CCOCC2)nc1 (stereo not shown) [Compound 475, 6-chloro-1-[2-(morpholin-4-yl)pyrimidin-5-yl]-2-(4-phenylpyrimidin-2-yl)-2,3,4,9-tetrahydro-1H-pyrido[3,4-b]indole] | 116 nM |
| FC(F)(F)c1cc(C(F)(F)F)nc(N2CCc3c([nH]c4ccc(-n5nccn5)cc34)[C@@H]2c2ccc(N3CCOCC3)nc2)n1 [Compound 485, (1S)-2-[4,6-bis(trifluoromethyl)pyrimidin-2-yl]-1-[6-(morpholin-4-yl)pyridin-3-yl]-6-(2H-1,2,3-triazol-2-yl)-2,3,4,9-tetrahydro-1H-pyrido[3,4-b]indole] | 0.6 nM |
| Fc1c(Br)ccc(C2c3[nH]c4ccc(Cl)cc4c3CCN2c2nccc(C(F)(F)F)n2)c1F (stereo not shown) [Compound 270, 1-(4-bromo-2,3-difluorophenyl)-6-chloro-2-[4-(trifluoromethyl)pyrimidin-2-yl]-2,3,4,9-tetrahydro-1H-pyrido[3,4-b]indole] | 0.3 nM |
| CN(C)c1ncc(C2c3[nH]c4cc(F)c(Cl)cc4c3CCN2c2nccc(C(F)(F)F)n2)cc1F (stereo not shown) [Compound 158, 5-{6-chloro-7-fluoro-2-[4-(trifluoromethyl)pyrimidin-2-yl]-2,3,4,9-tetrahydro-1H-pyrido[3,4-b]indol-1-yl}-3-fluoro-N,N-dimethylpyridin-2-amine] | 9.8 nM |
| CN(C)c1ccc2[nH]c3c(c2c1)CCN(c1nccc(C(F)(F)F)n1)C3c1cnc(N2CCOCC2)nc1 (stereo not shown) [Compound 329, N,N-dimethyl-1-[2-(morpholin-4-yl)pyrimidin-5-yl]-2-[4-(trifluoromethyl)pyrimidin-2-yl]-2,3,4,9-tetrahydro-1H-pyrido[3,4-b]indol-6-amine] | 35.4 nM |
| Fc1nc(N2CCOCC2)ccc1C1c2[nH]c3ccc(Cl)cc3c2CCN1c1nccc(C(F)(F)F)n1 (stereo not shown) [Compound 432, 6-chloro-1-[2-fluoro-6-(morpholin-4-yl)pyridin-3-yl]-2-[4-(trifluoromethyl)pyrimidin-2-yl]-2,3,4,9-tetrahydro-1H-pyrido[3,4-b]indole] | 1.6 nM |
| Cc1ccc(C2c3[nH]c4cc(F)c(Cl)cc4c3CCN2c2ncc(F)c(C#N)n2)c(F)c1F (stereo not shown) [Compound 162, 2-[6-chloro-1-(2,3-difluoro-4-methylphenyl)-7-fluoro-1,3,4,9-tetrahydro-2H-pyrido[3,4-b]indol-2-yl]-5-fluoropyrimidine-4-carbonitrile] | 2.4 nM |
| Cc1cc(C#N)nc(N2CCc3c([nH]c4cc(F)c(Cl)cc34)C2c2ccc(C)c(F)c2F)n1 (stereo not shown) [Compound 153, 2-[6-chloro-1-(2,3-difluoro-4-methylphenyl)-7-fluoro-1,3,4,9-tetrahydro-2H-pyrido[3,4-b]indol-2-yl]-6-methylpyrimidine-4-carbonitrile] | 1.1 nM |
| Cc1ccc([C@H]2c3[nH]c4ccc(Cl)cc4c3CCN2c2ncnc(C(F)(F)F)n2)c(F)c1F [Compound 461, (1S)-6-chloro-1-(2,3-difluoro-4-methylphenyl)-2-[4-(trifluoromethyl)-1,3,5-triazin-2-yl]-2,3,4,9-tetrahydro-1H-pyrido[3,4-b]indole] | 0.8 nM |
| Fc1ccc(C2c3[nH]c4cc(F)c(Cl)cc4c3CCN2c2nccc(C(F)(F)F)n2)c(F)n1 (stereo not shown) [Compound 184, 6-chloro-1-(2,6-difluoropyridin-3-yl)-7-fluoro-2-[4-(trifluoromethyl)pyrimidin-2-yl]-2,3,4,9-tetrahydro-1H-pyrido[3,4-b]indole] | 8 nM |
